Measurements published in publication PMC12583694, “RNF114 and RNF166 exemplify reader-writer E3 ligases that extend K11 polyubiquitin onto sites of MARUbylation” (The EMBO Journal, 2025).

Assays:
[1] = biological target: T1, AF1521 macrodomain (GST-AF1521) (Archaeoglobus fulgidus, UniProt O28751); experiment: fluorescence polarization; settings: labelled compound; pH 7.4, 150 mM NaCl, 0.1 mg/mL BSA, 1 mM TCEP, 22 °C; one-site total binding fit
T1 construct: gene AF_1521; GST-AF1521 plasmid (gift from M. Nielsen), purified as previously reported
T1 sequence (O28751 1-192): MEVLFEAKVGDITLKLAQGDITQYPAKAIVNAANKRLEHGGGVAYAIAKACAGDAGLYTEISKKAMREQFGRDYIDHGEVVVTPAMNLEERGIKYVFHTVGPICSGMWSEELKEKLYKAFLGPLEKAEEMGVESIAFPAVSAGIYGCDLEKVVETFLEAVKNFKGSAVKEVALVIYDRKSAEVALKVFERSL

RNF114 = biological target: T2, RNF114 (Homo sapiens, UniProt Q9Y508); experiment: fluorescence polarization; type: binding; settings: labelled compound; unreliable (estimated, saturation not reached); pH 7.4, 150 mM NaCl, 0.1 mg/mL BSA, 1 mM TCEP, 22 °C
T2 construct: full-length RNF114, N-terminal His-3C fusion (pOPIN-B), expressed in E. coli Rosetta; cobalt resin and gel filtration
T2 sequence (Q9Y508 whole entry, the tested form may be a part): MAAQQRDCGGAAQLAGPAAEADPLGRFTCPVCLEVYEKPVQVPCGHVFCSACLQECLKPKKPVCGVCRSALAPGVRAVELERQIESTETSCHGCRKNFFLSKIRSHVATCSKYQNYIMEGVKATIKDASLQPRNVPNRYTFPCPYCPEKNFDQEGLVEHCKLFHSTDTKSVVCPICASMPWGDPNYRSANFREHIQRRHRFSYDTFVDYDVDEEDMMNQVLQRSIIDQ

Substance: ADPr^T
- Kd [1]: 1.2 µM
- Kd (RNF114): ~ 40 µM
